Literature values, collected in patent publication US8945508B2, “Dendrimer compositions and methods of synthesis” (priority 2009, dated 2015).

Legend:
[1] = more cytotoxic than IRINOTECAN

SMILES	cytotoxicity relative to IRINOTECAN [1] [fold]	in vivo activity in solid tumor models (solid tumors)
CC[C@@]1(O)C(=O)OCc2c1cc1n(c2=O)Cc2cc3cc(O)ccc3nc2-1 [SN-38, 10-hydroxycamptothecin]	1000	
N.N.[Cl][Pt][Cl] [cisplatin]		no effect
